Data taken from ChEMBL document CHEMBL3997770, “An overview of the binding models of FGFR tyrosine kinases in complex with small molecule inhibitors” (Eur J Med Chem, 2017).
One block for each compound: values may come before it.

How the values were obtained:
[1] = biological target: T1, Fibroblast growth factor receptor 4 (Homo sapiens, UniProt P22455); test: Inhibition of human N-terminal GST-tagged FGFR4 cytoplasmic domain (460 to 802 end residues) expressed in baculovirus expression system using CSKtide as substrate after 90 mins
[2] = biological target: T2, Fibroblast growth factor receptor 1 (Homo sapiens, UniProt P11362); test: Inhibition of FGFR1 (unknown origin)
[3] = biological target: Fibroblast growth factor receptor 3 (Homo sapiens, UniProt P22607); test: Inhibition of FGFR3 (unknown origin)
[4] = biological target: T3, Fibroblast growth factor receptor 2 (Homo sapiens, UniProt P21802); test: Inhibition of FGFR2 (unknown origin)
[5] = biological target: Fibroblast growth factor receptor 2 (Homo sapiens, UniProt P21802, V564M); test: Inhibition of FGFR2 V564M mutant (unknown origin)
[6] = biological target: T1, Fibroblast growth factor receptor 4; test: Inhibition of FGFR4 (unknown origin)
[7] = biological target: T3, Fibroblast growth factor receptor 2; test: Inhibition of recombinant His6-tagged FGFR2 (unknown origin) expressed in Escherichia coli BL21(DE3)-RILP using peptidic substrate by ELISA
[8] = biological target: T2, Fibroblast growth factor receptor 1; test: Inhibition of recombinant His6-tagged FGFR1 (unknown origin) expressed in Escherichia coli BL21(DE3)-RILP using peptidic substrate by ELISA
[9] = biological target: T2, Fibroblast growth factor receptor 1; test: Inhibition of FGFR1 kinase domain (unknown origin)
[10] = biological target: Fibroblast growth factor receptor 1 (Mus musculus, UniProt P16092); test: Inhibition of FGF induced FGFR1 autophosphorylation in mouse NIH 3T3 cells preincubated for 5 mins followed by FGF-stimulation for 5 mins in presence of [gamma-32P]ATP by SDS-PAGE based autoradiography; format: cell-based
[11] = system: SNU-16; test: cells; conditions: Homo sapiens, SNU-16, 72 h
[12] = biological target: Epidermal growth factor receptor (Homo sapiens, UniProt P00533, L858R); test: Inhibition of EGFR L858R mutant (unknown origin)

T3 sequence (P21802 whole entry): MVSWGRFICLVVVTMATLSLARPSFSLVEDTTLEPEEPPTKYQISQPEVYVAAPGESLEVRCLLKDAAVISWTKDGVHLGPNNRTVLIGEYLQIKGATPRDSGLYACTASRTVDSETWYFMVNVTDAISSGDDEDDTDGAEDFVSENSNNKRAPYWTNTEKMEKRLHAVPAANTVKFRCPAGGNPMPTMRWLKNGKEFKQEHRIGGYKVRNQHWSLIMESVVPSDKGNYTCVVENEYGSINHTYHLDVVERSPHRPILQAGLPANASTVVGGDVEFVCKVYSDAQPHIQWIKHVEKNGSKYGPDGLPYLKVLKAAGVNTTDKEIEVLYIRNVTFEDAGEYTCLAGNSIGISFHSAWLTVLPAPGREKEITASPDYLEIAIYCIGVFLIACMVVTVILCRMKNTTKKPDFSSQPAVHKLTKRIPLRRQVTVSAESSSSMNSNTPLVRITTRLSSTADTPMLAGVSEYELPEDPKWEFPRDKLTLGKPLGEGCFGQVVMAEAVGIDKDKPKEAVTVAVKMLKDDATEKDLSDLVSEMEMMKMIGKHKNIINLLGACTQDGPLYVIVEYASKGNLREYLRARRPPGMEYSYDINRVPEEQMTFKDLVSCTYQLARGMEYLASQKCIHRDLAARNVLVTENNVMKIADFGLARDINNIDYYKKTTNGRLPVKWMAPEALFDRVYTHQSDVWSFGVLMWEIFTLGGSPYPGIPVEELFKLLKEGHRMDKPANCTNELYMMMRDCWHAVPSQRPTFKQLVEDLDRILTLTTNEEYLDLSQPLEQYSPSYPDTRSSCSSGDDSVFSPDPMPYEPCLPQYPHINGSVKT
T2 sequence (P11362 whole entry): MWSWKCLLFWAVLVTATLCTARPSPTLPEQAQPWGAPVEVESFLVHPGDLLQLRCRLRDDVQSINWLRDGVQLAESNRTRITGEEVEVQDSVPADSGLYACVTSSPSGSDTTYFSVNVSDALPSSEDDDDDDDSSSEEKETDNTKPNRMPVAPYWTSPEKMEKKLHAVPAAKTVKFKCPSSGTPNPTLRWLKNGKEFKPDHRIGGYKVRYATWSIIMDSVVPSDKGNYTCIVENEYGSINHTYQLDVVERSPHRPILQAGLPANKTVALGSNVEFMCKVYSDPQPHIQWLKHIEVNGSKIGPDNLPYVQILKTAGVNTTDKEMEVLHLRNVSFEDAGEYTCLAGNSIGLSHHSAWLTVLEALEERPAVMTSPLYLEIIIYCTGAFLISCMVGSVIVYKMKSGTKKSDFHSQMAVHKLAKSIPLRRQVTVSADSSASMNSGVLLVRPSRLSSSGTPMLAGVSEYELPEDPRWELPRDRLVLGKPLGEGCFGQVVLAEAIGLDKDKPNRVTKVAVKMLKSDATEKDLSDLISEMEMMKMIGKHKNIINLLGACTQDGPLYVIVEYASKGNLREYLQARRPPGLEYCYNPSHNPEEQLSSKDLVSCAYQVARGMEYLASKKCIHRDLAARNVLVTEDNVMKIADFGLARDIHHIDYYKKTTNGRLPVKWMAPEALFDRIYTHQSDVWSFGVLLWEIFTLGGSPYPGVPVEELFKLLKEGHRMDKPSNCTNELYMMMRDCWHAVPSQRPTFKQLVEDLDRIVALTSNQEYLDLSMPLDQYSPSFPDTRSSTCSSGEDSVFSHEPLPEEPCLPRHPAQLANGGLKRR
T1 sequence (P22455 whole entry, the tested form may be a part): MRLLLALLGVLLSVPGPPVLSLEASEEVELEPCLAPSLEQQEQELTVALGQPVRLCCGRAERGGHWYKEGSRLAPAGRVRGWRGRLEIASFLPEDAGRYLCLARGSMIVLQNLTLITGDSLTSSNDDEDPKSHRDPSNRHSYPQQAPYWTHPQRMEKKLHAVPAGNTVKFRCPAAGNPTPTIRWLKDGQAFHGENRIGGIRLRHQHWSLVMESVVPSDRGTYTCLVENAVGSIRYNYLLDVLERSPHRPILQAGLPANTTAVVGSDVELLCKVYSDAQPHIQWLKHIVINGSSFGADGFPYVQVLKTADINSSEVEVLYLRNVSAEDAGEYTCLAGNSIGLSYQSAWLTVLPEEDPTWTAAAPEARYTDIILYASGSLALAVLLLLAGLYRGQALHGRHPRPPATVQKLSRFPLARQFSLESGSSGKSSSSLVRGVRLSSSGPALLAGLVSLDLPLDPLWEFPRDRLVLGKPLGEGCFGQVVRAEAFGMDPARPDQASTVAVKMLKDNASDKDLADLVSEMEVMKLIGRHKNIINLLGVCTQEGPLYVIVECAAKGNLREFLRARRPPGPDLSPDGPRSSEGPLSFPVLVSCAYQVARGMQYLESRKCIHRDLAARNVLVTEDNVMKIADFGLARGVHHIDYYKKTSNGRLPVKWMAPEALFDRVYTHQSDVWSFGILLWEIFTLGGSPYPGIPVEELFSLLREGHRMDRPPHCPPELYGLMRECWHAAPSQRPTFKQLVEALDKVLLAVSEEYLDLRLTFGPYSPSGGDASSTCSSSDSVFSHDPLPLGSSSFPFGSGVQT
Fibroblast growth factor receptor 2 (Homo sapiens, UniProt P21802, V564M), sequence (P21802 22-821 V564M limits assumed): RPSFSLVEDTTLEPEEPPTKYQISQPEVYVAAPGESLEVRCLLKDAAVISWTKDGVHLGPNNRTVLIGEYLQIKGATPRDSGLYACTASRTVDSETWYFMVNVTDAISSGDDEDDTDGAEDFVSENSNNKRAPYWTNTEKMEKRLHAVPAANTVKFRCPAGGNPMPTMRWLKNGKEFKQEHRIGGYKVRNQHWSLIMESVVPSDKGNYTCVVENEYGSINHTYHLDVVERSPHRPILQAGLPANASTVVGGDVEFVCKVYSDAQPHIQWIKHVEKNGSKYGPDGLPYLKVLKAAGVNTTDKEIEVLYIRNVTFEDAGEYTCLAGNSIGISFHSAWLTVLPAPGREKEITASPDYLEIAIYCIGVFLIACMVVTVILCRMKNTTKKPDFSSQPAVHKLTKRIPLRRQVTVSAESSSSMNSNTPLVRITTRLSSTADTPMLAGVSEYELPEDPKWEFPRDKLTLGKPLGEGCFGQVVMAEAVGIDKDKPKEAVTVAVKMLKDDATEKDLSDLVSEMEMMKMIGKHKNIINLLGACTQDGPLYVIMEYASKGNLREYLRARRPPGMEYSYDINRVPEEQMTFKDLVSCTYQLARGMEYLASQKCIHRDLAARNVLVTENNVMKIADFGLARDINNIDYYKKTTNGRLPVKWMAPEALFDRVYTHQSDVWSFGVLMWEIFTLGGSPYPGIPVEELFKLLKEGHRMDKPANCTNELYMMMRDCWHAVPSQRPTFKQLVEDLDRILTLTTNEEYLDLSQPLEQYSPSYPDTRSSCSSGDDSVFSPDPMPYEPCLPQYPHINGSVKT
Fibroblast growth factor receptor 1 (Mus musculus, UniProt P16092), sequence (P16092 whole entry): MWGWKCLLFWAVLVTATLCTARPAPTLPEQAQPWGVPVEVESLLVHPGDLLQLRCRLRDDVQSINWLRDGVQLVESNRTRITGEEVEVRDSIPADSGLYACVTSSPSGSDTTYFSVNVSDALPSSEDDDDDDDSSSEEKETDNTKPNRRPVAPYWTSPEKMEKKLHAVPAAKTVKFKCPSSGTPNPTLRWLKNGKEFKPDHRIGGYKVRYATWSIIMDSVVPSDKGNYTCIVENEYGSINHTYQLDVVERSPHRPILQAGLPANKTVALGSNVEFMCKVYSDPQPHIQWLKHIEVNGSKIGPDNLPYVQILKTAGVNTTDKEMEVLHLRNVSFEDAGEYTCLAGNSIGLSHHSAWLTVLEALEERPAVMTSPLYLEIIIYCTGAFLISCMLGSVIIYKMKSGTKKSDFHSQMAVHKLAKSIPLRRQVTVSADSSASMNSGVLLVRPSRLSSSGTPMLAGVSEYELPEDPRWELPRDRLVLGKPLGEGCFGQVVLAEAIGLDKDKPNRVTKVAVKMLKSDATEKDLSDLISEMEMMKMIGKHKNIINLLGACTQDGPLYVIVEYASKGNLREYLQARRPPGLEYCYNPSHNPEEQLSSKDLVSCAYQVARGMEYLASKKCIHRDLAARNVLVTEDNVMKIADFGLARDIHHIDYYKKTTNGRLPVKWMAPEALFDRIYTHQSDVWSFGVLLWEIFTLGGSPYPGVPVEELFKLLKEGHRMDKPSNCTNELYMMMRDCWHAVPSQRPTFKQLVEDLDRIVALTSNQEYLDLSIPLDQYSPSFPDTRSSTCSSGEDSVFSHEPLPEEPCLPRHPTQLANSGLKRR
Fibroblast growth factor receptor 3, sequence (P22607 whole entry): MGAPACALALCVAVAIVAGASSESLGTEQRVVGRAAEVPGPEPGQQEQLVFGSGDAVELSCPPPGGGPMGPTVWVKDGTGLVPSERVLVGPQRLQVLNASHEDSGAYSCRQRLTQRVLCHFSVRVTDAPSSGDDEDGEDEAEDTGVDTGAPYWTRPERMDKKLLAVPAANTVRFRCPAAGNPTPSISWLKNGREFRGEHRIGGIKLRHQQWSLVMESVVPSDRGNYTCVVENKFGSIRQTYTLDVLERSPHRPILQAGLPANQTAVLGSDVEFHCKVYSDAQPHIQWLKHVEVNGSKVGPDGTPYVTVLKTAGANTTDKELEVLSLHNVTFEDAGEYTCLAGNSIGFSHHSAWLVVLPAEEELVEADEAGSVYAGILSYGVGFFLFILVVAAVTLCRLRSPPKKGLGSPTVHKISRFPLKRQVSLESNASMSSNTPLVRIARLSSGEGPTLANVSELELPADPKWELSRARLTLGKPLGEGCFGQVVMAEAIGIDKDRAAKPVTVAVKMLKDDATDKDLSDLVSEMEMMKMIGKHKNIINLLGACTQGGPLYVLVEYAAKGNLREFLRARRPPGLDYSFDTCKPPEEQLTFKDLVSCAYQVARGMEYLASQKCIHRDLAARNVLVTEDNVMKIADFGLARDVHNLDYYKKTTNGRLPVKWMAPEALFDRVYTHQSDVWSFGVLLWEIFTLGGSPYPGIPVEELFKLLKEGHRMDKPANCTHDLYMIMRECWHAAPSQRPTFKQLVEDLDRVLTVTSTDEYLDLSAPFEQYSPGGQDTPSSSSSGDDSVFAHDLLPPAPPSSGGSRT

SMILES: C=CC(N)=O [ACRYLAMIDE]
IC50 [1]: 938 nM

SMILES: C=CC(=O)Nc1ccc(CN2C(=O)N(c3cc(OC)cc(OC)c3)Cc3cnc(Nc4ccc(N5CCN(C)CC5)cc4)nc32)cc1
EC50 [2]: 1 nM
IC50 [3]: 93 nM
IC50 [4]: 4 nM
IC50 [5]: 58 nM
IC50 [6]: 32 nM

SMILES: C=CC(=O)Nc1ccc(CN(C(=O)Nc2c(Cl)c(OC)cc(OC)c2Cl)c2cc(Nc3ccc(N4CCN(C)CC4)cc3)ncn2)cc1
EC50 [2]: 1 nM
IC50 [12]: 16.8 nM
IC50 [3]: 41 nM
IC50 [4]: < 1 nM
IC50 [5]: 64 nM
IC50 [6]: 22 nM

SMILES: CCN1CCN(c2ccc(C(=O)Nc3n[nH]c4cc(-c5cccc(OC)c5)ccc34)cc2)CC1
IC50 [11]: 642 nM

The next lines start with the values.

IC50 [7]: 1230 nM
IC50 [8]: 840 nM
SMILES: Nc1ncc2c(n1)-c1ccccc1[C@H](c1ccccc1)C2

IC50 [9]: 10 to 20 µM
IC50 [10]: 20 to 40 µM
SMILES: O=CN1CCN(c2ccc(/C=C3\C(=O)Nc4ccccc43)cc2)CC1

IC50 [9]: 10 to 20 µM
IC50 [10]: 10 to 20 µM
SMILES: Cc1c[nH]c(/C=C2\C(=O)Nc3ccccc32)c1CCC(=O)O

IC50 [11]: 40.5 nM
SMILES: CCN1CCN(c2ccc(C(=O)Nc3n[nH]c4cc(-c5cccc(OC)c5F)ccc34)cc2)CC1
